The text below walks through data of ChEMBL document CHEMBL4033672, “Synthesis and biological evaluation of chemokine receptor ligands with 2-benzazepine scaffold” (Eur J Med Chem, 2017).

Each structure is given as a SMILES string. Active and inactive are the calls of the source. The rule behind the calls is not given here. Bounds are passed on as bounds.

Assay [1] deals with T1, C-C chemokine receptor type 2 (Homo sapiens, UniProt P41597). Briefly: Displacement of [3H]INCB3344 from human CCR2 expressed in human U2OS cells at 1 uM after 120 mins by scintillation spectrometric analysis relative to control. The assay is classed as cell-based. On the technique in general: Loss of bound radioactivity is the signal in a displacement assay; it reports binding, not function.
Target sequence in this assay (P41597 whole entry, looked up): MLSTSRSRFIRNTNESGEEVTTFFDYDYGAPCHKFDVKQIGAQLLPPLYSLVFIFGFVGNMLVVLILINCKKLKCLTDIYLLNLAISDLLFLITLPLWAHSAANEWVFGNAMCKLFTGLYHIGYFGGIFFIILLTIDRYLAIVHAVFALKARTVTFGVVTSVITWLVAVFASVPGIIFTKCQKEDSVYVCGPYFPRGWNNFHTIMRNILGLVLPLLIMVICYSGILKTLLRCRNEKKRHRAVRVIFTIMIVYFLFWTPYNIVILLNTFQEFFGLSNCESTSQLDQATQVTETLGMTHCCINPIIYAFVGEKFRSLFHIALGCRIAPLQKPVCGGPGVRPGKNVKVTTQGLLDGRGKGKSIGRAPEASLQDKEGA

In assay [2] the target is T2, C-C chemokine receptor type 5 (Homo sapiens, UniProt P51681). Briefly: Positive allosteric modulation of human CCR5 expressed in HEK293T cells co-expressing CAMYEL assessed as increase in CCL4-induced inhibition of forskolin-stimulated cAMP accumulation after 10 mins by BRET assay. The assay is classed as functional, cell-based, HEK-293T. A general note: Cyclic AMP is a second messenger, typically raised through Gs and lowered through Gi signalling.
Target sequence in this assay (P51681 whole entry): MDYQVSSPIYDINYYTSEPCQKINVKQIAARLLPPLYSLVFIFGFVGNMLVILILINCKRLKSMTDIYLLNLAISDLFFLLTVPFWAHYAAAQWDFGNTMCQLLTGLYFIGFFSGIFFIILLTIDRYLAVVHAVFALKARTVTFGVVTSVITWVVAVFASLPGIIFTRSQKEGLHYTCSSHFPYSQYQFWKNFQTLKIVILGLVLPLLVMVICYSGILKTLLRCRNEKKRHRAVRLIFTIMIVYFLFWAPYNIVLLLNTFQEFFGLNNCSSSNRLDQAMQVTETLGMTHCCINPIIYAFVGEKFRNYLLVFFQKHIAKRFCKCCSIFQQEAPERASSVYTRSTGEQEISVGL

Assay [3] has as its target T2, C-C chemokine receptor type 5. Briefly: Displacement of [3H]TAK-779 from CCR5 (unknown origin) at 1 uM after 120 mins by scintillation counting method relative to control.
Target sequence in this assay (P51681 whole entry, looked up): as the sequence (P51681 whole entry) above
For assay [4], the target named is T1, C-C chemokine receptor type 2. Briefly: Antagonist activity at human CCR2b expressed in human Chem1 cells assessed as inhibition of human recombinant CCL2 induced Ca2+ mobilization preincubated for 10 mins followed by CCL2 induction measured every sec for 120 secs by Fluo-4-AM dye-based fluorescence assay. The assay is classed as functional, cell-based. (Calcium assays in cells follow changes in intracellular calcium, usually with a dye or a luminescent sensor.)
Target sequence in this assay (P41597 whole entry): as the sequence (P41597 whole entry, looked up) above

The target in assay [5] is T2, C-C chemokine receptor type 5. Briefly: Positive allosteric modulation of human CCR5 expressed in HEK293T cells co-expressing CAMYEL assessed as increase in CCL5-induced inhibition of forskolin-stimulated cAMP accumulation after 10 mins by BRET assay. The note with it: HEK-293T. The assay is classed as functional, cell-based.
Target sequence in this assay (P51681 whole entry, looked up): as the sequence (P51681 whole entry) above
For assay [6] the target is unchanged. Briefly: Intrinsic agonist activity at human CCR5 expressed in HEK293T cells co-expressing CAMYEL assessed as inhibition of forskolin-stimulated cAMP accumulation after 10 mins by BRET assay. It is filed as functional, cell-based. The note with it: HEK-293T.
Target sequence in this assay (P51681 whole entry, looked up): as the sequence (P51681 whole entry) above
Assay [7] has the same target. Briefly: Negative allosteric modulation of human CCR5 expressed in HEK293T cells co-expressing CAMYEL assessed as decrease in CCL5-induced inhibition of forskolin-stimulated cAMP accumulation after 10 mins by BRET assay. The note with it: HEK-293T. The assay is classed as functional, cell-based.
Target sequence in this assay (P51681 whole entry, looked up): as the sequence (P51681 whole entry) above
Assay [8] shares this target. The assay is described as follows: Negative allosteric modulation of human CCR5 expressed in HEK293T cells co-expressing CAMYEL assessed as decrease in CCL4-induced inhibition of forskolin-stimulated cAMP accumulation after 10 mins by BRET assay. The settings on record: HEK-293T. The assay is classed as functional, cell-based.
Target sequence in this assay (P51681 whole entry, looked up): as the sequence (P51681 whole entry) above
Assay [9] has as its target T1, C-C chemokine receptor type 2. Briefly: Displacement of [3H]INCB3344 from human CCR2 expressed in human U2OS cells after 120 mins by scintillation spectrometric analysis. The assay is classed as cell-based.
Target sequence in this assay (P41597 whole entry): as the sequence (P41597 whole entry, looked up) above
Assay [10] concerns the target T2, C-C chemokine receptor type 5. The assay is described as follows: Displacement of [3H]TAK-779 from CCR5 (unknown origin) after 120 mins by scintillation counting method.
Target sequence in this assay (P51681 whole entry): as the sequence (P51681 whole entry) above

In general, inhibition refers to the change of the read-out against control, counted positive when it falls. A lower inhibition goes with a weak effect. As usually defined, the EC50 is the concentration at which the effect is half-maximal. What is called IC50 is the concentration needed to halve the response being measured.

Consider `CC(C)CN1CC(C(=O)Nc2ccc(CN(C)C3CCOCC3)cc2)=Cc2ccc([N+](=O)[O-])cc2C1=O`, for which the figures for the inhibition in [1] and in assay [3] were 9% and 0%, respectively. Besides, in [2], the EC50 is above 10 nM.
The like results for `CC(C)CN1CC(C(=O)Nc2ccc(CN(C)C3CCOCC3)cc2)=Cc2c(cccc2[N+](=O)[O-])C1=O` were, in that order, 6%, 0% and above 10 nM.
As for `CC(=O)Nc1ccc2c(c1)C(=O)N(CC(C)C)CC(C(=O)Nc1ccc(CN(C)C3CCOCC3)cc1)=C2`, the inhibition in [1] was determined as 15%; in assay [3], 0%. Also, in assay [2], the EC50 was above 10 nM.
Regarding `Cc1ccc(-c2ccc3c(c2)C(=O)N(CC(C)C)CC(C(=O)Nc2ccc(CN(C)C4CCOCC4)cc2)=C3)cc1`, the inhibition in assay [1] and in assay [3] was 0% throughout. Also, the concentration for half-maximal inhibition (IC50) in [4] worked out at 3000 nM. Besides, in assay [2], the EC50 was above 10 nM.
Take `CC(C)CN1CC(C(=O)Nc2ccc(CN(C)C3CCOCC3)cc2)=Cc2ccc(NS(C)(=O)=O)cc2C1=O`: the inhibition was found to be 18% in [1] and 0% in assay [3]. Further, in [2], the EC50 was above 10 nM.
On the same counts, the results for `CC(C)CN1CC(C(=O)Nc2ccc(S(=O)(=O)Nc3nccs3)cc2)=Cc2ccccc2C1=O` are 18%, 0% and above 10 nM.
Turning to `CC(C)CN1CC(C(=O)Nc2ccc(CN(C)C3CCOCC3)cc2)=Cc2ccccc2C1=O`, the outcome in assay [5] and in assay [6] was inactive. Moreover, the inhibition in assay [1] turned out to be 18%; in [3], 0%. Also, in assay [2], the 50% effective concentration (EC50) was determined as 2470 nM.
`Cc1ccc(-c2ccc3c(c2)C=C(C(=O)Nc2ccc(CN(C)C4CCOCC4)cc2)CN(CC(C)C)C3=O)cc1`: the IC50 in assay [4] was found to be 140 nM; in assay [9], 387 nM. In assay [2], the 50% effective concentration (EC50) is above 10 nM. For the same molecule, the outcome in assay [7] and in [8] was Active. For the same molecule, the inhibition in assay [3] worked out at 0%.
For the molecule `Cc1ccc(-c2ccc3c(c2)C=C(C(=O)Nc2ccc(C[N+](C)(C)C4CCOCC4)cc2)CCC3)cc1`, the 50% effective concentration (EC50) in assay [2] was 7 nM. In assay [10], this molecule had an IC50 of 2 nM.
